Results from patent publication US11292807B2 (OCEANS LTD., priority 2015, dated 2022).
Read-outs that look alike come from different tables or passages of the source.

Assays:
PC3 [1] = settings: human, 72 h, 1 ug/mL
[2] = tested on: SKOV3 (ovarian adenocarcinoma); settings: human, 72 h
MDA-MB [3] = settings: for Fold change in viability AVG / MDA-MB AVG: MDA-MB; for Average cell viability: human, 72 h
MDA-MB [4] = assay: cells; settings: Homo sapiens, read-out: Average cell viability, MDA-MB
PC3 [5] = assay: CIMA assay, cell viability, PC3
[6] = tested on: U373 (glioblastoma-astrocytoma); assay: CIMA assay, cell viability, U373
[7] = tested on: SKOV3 (ovarian adenocarcinoma); assay: CIMA assay, cell viability, SKOV3; settings: for Fold change in viability AVG: SKOV
[8] = CIMA assay, cell viability, CCD1079SK; settings: human, Average cell viability, CCD
Experimental: (§1) Stock solutions of the extracts were prepared in dimethylsulfoxide (DMSO) at 10 mg/mL and stored in 200 μl aliquots at −20° C. until analysis. This preparation ensured that the DMSO delivered to cells in culture never exceeded 1%.
(§2) Prepared extracts were assessed following chronic exposure conditions in which cells were seeded at 2×10^3 cells/well (96 well-plate) and incubated with test compounds for 72 h. Each compound was evaluated over a range of concentrations (0, 10, 25, 50 or 100 μg/ml). Cell proliferation was initially assessed using a standard colorimetric indicator of metabolic activity (CIMA) assay. In this assay, tetrazole reduction was evaluated as a measure of metabolic function that evaluates mitochondrial activity to determine the extent of cell proliferation within a culture. This assay is based on the reduction of yellow tetrazolium salt to purple formazan by mitochondrial reductases enzyme in viable cells, resulting in a color changed that confers a change in absorbance.

[9] = tested on: CCD1079SK (fibroblast, noncancerous but proliferating); assay: CIMA assay, cell viability, CCD1079SK; settings: CCD
Experimental: as §1, §2

A549 (lung carcinoma) = assay: CIMA assay (colorimetric indicator of metabolic activity), cell viability, A549; settings: for Average cell viability: unit assumed
[10] = 10 ug/mL, listed as 169-14-15-4
[11] = 10 ug/mL, listed as 174-13-14-3
[12] = 50 ug/mL, listed as 169-14-15-4
[13] = 50 ug/mL, listed as 174-13-14-3
[14] = 100 ug/mL, listed as 169-14-15-4
[15] = 100 ug/mL, listed as 174-13-14-3
[16] = U373, 1 ug/mL, listed as 169-14-15-4
[17] = U373, 1 ug/mL, listed as 174-13-14-3
[18] = U373, 10 ug/mL, listed as 169-14-15-4
[19] = U373, 10 ug/mL, listed as 174-13-14-3
[20] = U373, 50 ug/mL, listed as 169-14-15-4
[21] = U373, 50 ug/mL, listed as 174-13-14-3
[22] = A549, 1 ug/mL, listed as 174-13-14-3
[23] = A549, 10 ug/mL, listed as 169-14-15-4
[24] = A549, 10 ug/mL, listed as 174-13-14-3
[25] = A549, 50 ug/mL, listed as 169-14-15-4
[26] = A549, 50 ug/mL, listed as 174-13-14-3
[27] = A549, 100 ug/mL, listed as 169-14-15-4
[28] = A549, 100 ug/mL, listed as 174-13-14-3

CC/C=C\C/C=C\C/C=C\C/C=C\C/C=C\CCCC(=O)OCC(COC1OC(CO)C(O)C(O)C1O)OC(=O)CCCCCCCCCCCCCCC (stereo not shown) [Compound 2, MGDG C20:5/C16:0]
Average cell viability (PC3 [1]): 97%
Average cell viability ([2]; 10 ug/mL): 94%
Average cell viability ([2]; 50 ug/mL): 62%
Fold change in viability AVG (MDA-MB [3]; 1 ug/mL, listed as 169-14-15-4): 1.09
Fold change in viability AVG (MDA-MB [3]; 1 ug/mL, listed as 174-13-14-3): 1.11
Fold change in viability AVG (MDA-MB [3]; [10]): 1.09
Fold change in viability AVG (MDA-MB [3]; [11]): 0.90
Fold change in viability AVG (MDA-MB [3]; [12]): 0.49
Fold change in viability AVG (MDA-MB [3]; [13]): 0.23
Fold change in viability AVG (MDA-MB [3]; [14]): 0.24
Fold change in viability AVG (MDA-MB [3]; [15]): 0.22
MDA-MB AVG (MDA-MB [3]; sample at 1 ug/mL, listed as 169-14-15-4): 1.09
MDA-MB AVG (MDA-MB [3]; sample at 1 ug/mL, listed as 174-13-14-3): 1.11
MDA-MB AVG (MDA-MB [3]; sample at 10 ug/mL, listed as 169-14-15-4): 1.09
MDA-MB AVG (MDA-MB [3]; sample at 10 ug/mL, listed as 174-13-14-3): 0.90
MDA-MB AVG (MDA-MB [3]; sample at 50 ug/mL, listed as 169-14-15-4): 0.49
MDA-MB AVG (MDA-MB [3]; sample at 50 ug/mL, listed as 174-13-14-3): 0.23
MDA-MB AVG (MDA-MB [3]; sample at 100 ug/mL, listed as 169-14-15-4): 0.24
MDA-MB AVG (MDA-MB [3]; sample at 100 ug/mL, listed as 174-13-14-3): 0.22
Average cell viability (MDA-MB [3]; 1 ug/mL): 102%
Average cell viability (MDA-MB [3]; 10 ug/mL): 83%
Average cell viability (MDA-MB [3]; 100 ug/mL): 20%
viability at 1 µg/mL (MDA-MB [4]; 1 ug/mL): 100%
viability at 10 µg/mL (MDA-MB [4]; 10 ug/mL): 101%
viability at 100 µg/mL (MDA-MB [4]; 100 ug/mL): 22%
viability at 1 µg/mL (PC3 [5]; Homo sapiens, PC-3, read-out: Average cell viability, PC3, 1 ug/mL): 107%
Fold change in viability AVG (PC3 [5]; PC3, 1 ug/mL, listed as 169-14-15-4): 1.11
Fold change in viability AVG (PC3 [5]; PC3, 1 ug/mL, listed as 174-13-14-3): 1.00
Fold change in viability AVG (PC3 [5]; PC3, 10 ug/mL, listed as 169-14-15-4): 0.93
Fold change in viability AVG (PC3 [5]; PC3, 10 ug/mL, listed as 174-13-14-3): 0.71
Fold change in viability AVG (PC3 [5]; PC3, 50 ug/mL, listed as 169-14-15-4): 0.51
Fold change in viability AVG (PC3 [5]; PC3, 50 ug/mL, listed as 174-13-14-3): 0.05
Fold change in viability AVG (PC3 [5]; PC3, 100 ug/mL, listed as 169-14-15-4): 0.15
Fold change in viability AVG (PC3 [5]; PC3, 100 ug/mL, listed as 174-13-14-3): 0.05
PC3 AVG (PC3 [5]; PC3, sample at 1 ug/mL, listed as 169-14-15-4): 1.11
PC3 AVG (PC3 [5]; PC3, sample at 1 ug/mL, listed as 174-13-14-3): 1.00
PC3 AVG (PC3 [5]; PC3, sample at 10 ug/mL, listed as 169-14-15-4): 0.93
PC3 AVG (PC3 [5]; PC3, sample at 10 ug/mL, listed as 174-13-14-3): 0.71
PC3 AVG (PC3 [5]; PC3, sample at 50 ug/mL, listed as 169-14-15-4): 0.51
PC3 AVG (PC3 [5]; PC3, sample at 50 ug/mL, listed as 174-13-14-3): 0.05
PC3 AVG (PC3 [5]; PC3, sample at 100 ug/mL, listed as 169-14-15-4): 0.15
PC3 AVG (PC3 [5]; PC3, sample at 100 ug/mL, listed as 174-13-14-3): 0.05
viability at 100 µg/mL ([6]; Homo sapiens, U373 MG, read-out: Average cell viability, U373, 100 ug/mL): 8%
Average cell viability [6, 16]: 106%
Fold change in viability AVG [6, 16]: 1.08
Average cell viability [6, 17]: 85%
Fold change in viability AVG [6, 17]: 0.86
Average cell viability [6, 18]: 94%
Fold change in viability AVG [6, 18]: 0.95
Average cell viability [6, 19]: 73%
Fold change in viability AVG [6, 19]: 0.74
Average cell viability [6, 20]: 30%
Fold change in viability AVG [6, 20]: 0.30
Average cell viability [6, 21]: 13%
Fold change in viability AVG [6, 21]: 0.13
U373 AVG ([6]; U373, sample at 1 ug/mL, listed as 169-14-15-4): 1.08
U373 AVG ([6]; U373, sample at 1 ug/mL, listed as 174-13-14-3): 0.86
U373 AVG ([6]; U373, sample at 10 ug/mL, listed as 169-14-15-4): 0.95
U373 AVG ([6]; U373, sample at 10 ug/mL, listed as 174-13-14-3): 0.74
U373 AVG ([6]; U373, sample at 50 ug/mL, listed as 169-14-15-4): 0.30
U373 AVG ([6]; U373, sample at 50 ug/mL, listed as 174-13-14-3): 0.13
U373 AVG ([6]; U373, sample at 100 ug/mL): 0.08
Fold change in viability AVG ([6]; U373, 100 ug/mL): 0.08
viability at 50 µg/mL ([7]; Homo sapiens, SK-OV-3, read-out: Average cell viability, SKOV, 50 ug/mL): 67%
Fold change in viability AVG ([7]; 1 ug/mL, listed as 169-14-15-4): 1.16
Fold change in viability AVG ([7]; 1 ug/mL, listed as 174-13-14-3): 0.89
Fold change in viability AVG [7, 10]: 1.02
Fold change in viability AVG [7, 11]: 0.72
Fold change in viability AVG [7, 12]: 0.72
Fold change in viability AVG [7, 13]: 0.67
Fold change in viability AVG [7, 14]: 0.48
Fold change in viability AVG [7, 15]: 0.19
viability at 72 h, 1 ug/mL ([8]; CCD1079SK fibroblast cells (noncancerous, proliferating), 1 ug/mL): 107%
viability at 72 h, 10 ug/mL ([8]; CCD1079SK fibroblasts (noncancerous, proliferating), 10 ug/mL): 99%
viability at 72 h, 50 ug/mL ([8]; CCD1079SK fibroblasts (noncancerous, proliferating), 50 ug/mL): 32%
viability at 72 h, 100 ug/mL ([8]; CCD1079SK fibroblasts (noncancerous, proliferating), 100 ug/mL): 13%
Fold change in viability AVG ([9]; 1 ug/mL, listed as 169-14-15-4): 1.18
Average cell viability ([9]; 1 ug/mL, listed as 174-13-14-3): 101%
Fold change in viability AVG ([9]; 1 ug/mL, listed as 174-13-14-3): 1.11
Fold change in viability AVG [9, 10]: 1.08
Average cell viability [9, 11]: 89%
Fold change in viability AVG [9, 11]: 0.98
Fold change in viability AVG [9, 12]: 0.36
Average cell viability [9, 13]: 20%
Fold change in viability AVG [9, 13]: 0.22
Fold change in viability AVG [9, 14]: 0.14
Average cell viability [9, 15]: 14%
Fold change in viability AVG [9, 15]: 0.15
Fold change in viability AVG (A549 (lung carcinoma); A549, 1 ug/mL, listed as 169-14-15-4): 1.19
Fold change in viability AVG (A549 (lung carcinoma); [22]): 1.12
Average cell viability (A549 (lung carcinoma); [22]): 96%
Fold change in viability AVG (A549 (lung carcinoma); [23]): 1.14
Average cell viability (A549 (lung carcinoma); [23]): 98%
Fold change in viability AVG (A549 (lung carcinoma); [24]): 0.60
Average cell viability (A549 (lung carcinoma); [24]): 52%
Fold change in viability AVG (A549 (lung carcinoma); [25]): 0.98
Average cell viability (A549 (lung carcinoma); [25]): 84%
Fold change in viability AVG (A549 (lung carcinoma); [26]): 0.60
Average cell viability (A549 (lung carcinoma); [26]): 51%
Fold change in viability AVG (A549 (lung carcinoma); [27]): 0.74
Average cell viability (A549 (lung carcinoma); [27]): 64%
Fold change in viability AVG (A549 (lung carcinoma); [28]): 0.41
Average cell viability (A549 (lung carcinoma); [28]): 35%
A549 AVG (A549 (lung carcinoma); A549, sample at 1 ug/mL, listed as 169-14-15-4): 1.19
A549 AVG (A549 (lung carcinoma); A549, sample at 1 ug/mL, listed as 174-13-14-3): 1.12
A549 AVG (A549 (lung carcinoma); A549, sample at 10 ug/mL, listed as 169-14-15-4): 1.14
A549 AVG (A549 (lung carcinoma); A549, sample at 10 ug/mL, listed as 174-13-14-3): 0.60
A549 AVG (A549 (lung carcinoma); A549, sample at 50 ug/mL, listed as 169-14-15-4): 0.98
A549 AVG (A549 (lung carcinoma); A549, sample at 50 ug/mL, listed as 174-13-14-3): 0.60
A549 AVG (A549 (lung carcinoma); A549, sample at 100 ug/mL, listed as 169-14-15-4): 0.74
A549 AVG (A549 (lung carcinoma); A549, sample at 100 ug/mL, listed as 174-13-14-3): 0.41
viability at 1 µg/mL (A549 (lung carcinoma); Homo sapiens, A549, read-out: Average cell viability, A549, 1 ug/mL): 102%
